Assay results: patent US20210030735A1 (Tesaro, Inc., priority 2018, published 2021)
Values after ≈ are worked out from the molar mass of the structure shown. Where two headings read alike, the source gives them in different places.

Key:
[1] = drug substance
Description: The particle size analyzer can determine particle size using low-angle laser light scattering and calculates results in % volume based on equivalent spheres. Volume distributions for the D10, D50, D90, D4,3, and D3,2 can be determined. The suspension is added to the tank until the obscuration is in range, targeting a 10% obscuration. Measurements are taken once the obscuration remains consistent.
These batches were divided into sub-lots at various time intervals and each sub-lot was analyzed for content uniformity. The batches used are described in Table 12.

beagle dogs = details: dog, in vivo, 1 month
in vivo = details: tumor, 50 mg/kg
juvenile rats = details: rat, in vivo, 1 month
[2] = test system: recurrent solid tumors that exhibit a BRCAness mutational signature; details: oral niraparib in combination with TSR-042, patients between 6 months and 18 years
[3] = test system: platinum-sensitive recurrent epithelial ovarian, fallopian tube, or primary peritoneal cancer; details: for PFS Median: niraparib 300 mg QD; for HR, CFI / HR, TFST: niraparib versus placebo
Excerpt: All patients had received at least two prior platinum-containing regimens and were in response (complete or partial) to their most recent platinum-based regimen. Eligible patients were assigned to one of two cohorts based on the results of a germline BRCA mutation test. […] Randomization occurred within 8 weeks of the last dose of the most recent platinum-containing regimen. […] Clinic visits occurred each cycle (4 weeks ±3 days). […] Prior to unblinding of the study, tumors of patients randomized to the non-gBRCAmut cohort were tested for the presence of homologous recombination deficiency (HRD) using the Myriad myChoice® HRD test, which evaluates three independent biomarkers of tumor genome instability: loss of heterozygosity, telomeric allelic imbalance, and large-scale state transitions. Tumors with homologous recombination deficiencies and those with somatic BRCA mutations were defined as HRD positive (HRDpos). The primary efficacy analysis for PFS was prospectively defined and assessed for the gBRCAmut cohort. The primary efficacy analysis for PFS was prospectively defined and assessed for the non-gBRCAmut cohort with a hierarchical testing schema. In the first step, PFS was assessed in the group of patients with HRDpos tumors and if significant, PFS was assessed in the overall non-gBRCAmut cohort. Secondary efficacy endpoints included chemotherapy-free interval (CFI), time to first subsequent therapy (TFST), PFS after the first subsequent therapy (PFS2), time to second subsequent therapy (TSST) and OS (overall survival).

## Cc1ccc(S(=O)(=O)O)cc1.NC(=O)c1cccc2cn(-c3ccc([C@@H]4CCCNC4)cc3)nc12 [niraparib tosylate monohydrate, 2-{4-[(3S)-piperidin-3-yl]phenyl}-2H-indazole 7-carboxamide 4-methylbenzenesulfonate hydrate (1:1:1)]
[1]
  bulk density: 0.34-0.45 g/cc
  tapped density: 0.53-0.66 g/cc

## NC(=O)c1cccc2cn(-c3ccc([C@@H]4CCCNC4)cc3)nc12 [Niraparib, niraparib]
Beagle dogs
  no-observed-adverse-effect-level: 6 mg/kg/day
In vivo
  concentration at 6 h: 4570 ng/mL
Tumor models; 50 mg/kg, daily dosing
  tumor regression: tumor regression
Tumor models; dose of 75 mg/kg, same model
  tumor regression: did not result in tumor regression
physchem
  pKa: 9.95
physchem; aqueous media across the physiological pH range, aqueous buffer
  solubility: 700 to 1100 µg/mL (≈ 2180 to 3430 µM)
Juvenile rats
  no-observed-adverse-effect-level: 10 mg/kg/day
[2]
  treatment of pediatric cancer patients, result of the study: can be used successfully
[3]; HRDpos group of the non-gBRCAmut cohort, N = 106
  PFS Median: 12.9 months
[3]; gBRCAmut cohort
  Median CFI (chemotherapy-free interval): 22.8 months
  Median TFST (time to first subsequent therapy): 21.0 months
  HR, CFI: 0.26
  HR, TFST: 0.31
[3]; gBRCAmut cohort, N = 138
  PFS Median: 21.0 months
[3]; non-gBRCAmut cohort
  Median CFI (chemotherapy-free interval): 12.7 months
  Median TFST (time to first subsequent therapy): 11.8 months
  HR, CFI: 0.50
  HR, TFST: 0.55
[3]; overall non-gBRCAmut cohort, N = 234
  PFS Median: 9.3 months
